Results from US8399674B2, “Quinolines” (Hoffman-La Roche Inc., priority 2007, dated 2013).

Target: T1, recombinant human 5-HT5A receptor (Homo sapiens, UniProt P47898)
T1 construct: expressed in transfected cells; host or cells: HEK-EBNA (Human Embryonic Kidney-EBNA) cells, transient transfection; membranes
Assay: [3H]LSD radioligand binding assay, membranes of HEK-EBNA cells transiently expressing the receptor
Conditions: [3H]LSD approx. 1 nM, 120 min room temperature, Ki from IC50 by Cheng-Prussoff equation, read-out: Ki (affinity towards the human 5-HT5A receptor)
Experimental: A [^3H] LSD radioligand binding assay was used to determine the affinity of the compounds for the recombinant human 5-HT5A receptor, in membranes from transiently (cDNA) expressed 5-HT5A receptors in Human Embryonic Kidney-EBNA (HEK-EBNA) cells.
Assay buffer consisted of Tris (50 mM) buffer containing 1 mM EGTA, 10 mM MgCl2 (pH 7.4) and 10 μM pargyline. The binding assay was carried out in 96-well-plates in the presence of [^3H]LSD (approximately 1 nM), approximately 2 μg/well of membrane protein, and 0.5 mg of Ysi-poly-1-lysine SPA beads in a final volume of 200 μl of buffer. Non-specific binding was defined using methiothepin 2 μM. Compounds were tested at 10 concentrations. All assays were conducted in duplicate and repeated at least two times. Assay plates were incubated for 120 min at room temperature before centrifugation. Bound ligand was determined using a Packard Topcount scintillation counter. IC50 values were calculated using a non-linear curve fitting program and Ki values calculated using the Cheng-Prussoff equation.

T1 sequence (P47898 whole entry): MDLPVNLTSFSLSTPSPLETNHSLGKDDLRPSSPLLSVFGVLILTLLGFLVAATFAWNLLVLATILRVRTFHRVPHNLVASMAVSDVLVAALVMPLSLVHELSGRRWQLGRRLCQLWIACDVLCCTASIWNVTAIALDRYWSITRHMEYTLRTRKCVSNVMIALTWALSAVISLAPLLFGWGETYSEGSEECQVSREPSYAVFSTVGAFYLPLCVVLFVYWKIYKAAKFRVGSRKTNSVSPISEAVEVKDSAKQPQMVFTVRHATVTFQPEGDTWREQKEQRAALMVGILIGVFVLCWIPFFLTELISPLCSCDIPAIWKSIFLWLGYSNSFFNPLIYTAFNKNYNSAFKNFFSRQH

Ki | Compound
22 nM | c1ccc(OCCNc2ccc3cc(NCc4cccnc4)ccc3n2)cc1 [Example 1, N2-(2-Phenoxy-ethyl)-N6-pyridin-3-ylmethyl-quinoline-2,6-diamine]
104 nM | COc1ccccc1CNc1ccc2cc(CCc3ccccc3)ccc2n1 [Example 4, (2-Methoxy-benzyl)-(6-phenethyl-quinolin-2-yl)-amine]
27 nM | COc1ccccc1CNc1ccc2cc(NCc3cccnc3)ccc2n1 [Example 6, N2-(2-Methoxy-benzyl)-N6-pyridin-3-ylmethyl-quinoline-2,6-diamine]
101 nM | c1ccc(OCCNc2ccc3cc(NCc4ccncc4)ccc3n2)cc1 [Example 7, N2-(2-Phenoxy-ethyl)-N6-pyridin-4-ylmethyl-quinoline-2,6-diamine]
22 nM | COc1ccccc1CNc1ccc2cc(NCc3ccccc3)ccc2n1 [Example 8, N6-Benzyl-N2-(2-methoxy-benzyl)-quinoline-2,6-diamine]
26 nM | COc1ccccc1CNc1ccc2nc(NCCOc3ccccc3)ccc2c1 [Example 9, N6-(2-Methoxy-benzyl)-N2-(2-phenoxy-ethyl)-quinoline-2,6-diamine]
42 nM | COc1cccc(CNc2ccc3nc(NCCOc4ccccc4)ccc3c2)c1 [Example 10, N6-(3-Methoxy-benzyl)-N2-(2-phenoxy-ethyl)-quinoline-2,6-diamine]
11 nM | COc1ccccc1CNc1cc(-c2ccccc2)c2cc(NCc3cccnc3)ccc2n1 [Example 13, N2-(2-Methoxy-benzyl)-4-phenyl-N6-pyridin-3-ylmethyl-quinoline-2,6-diamine]
60 nM | COc1ccccc1CNc1ccc2cc(/C=C/c3cccnc3)ccc2n1 [Example 14, (2-Methoxy-benzyl)-[6-((E)-2-pyridin-3-yl-vinyl)-quinolin-2-yl]-amine]
17 nM | COc1ccccc1CNc1ccc2nc(NCc3ccccc3OC)ccc2c1 [Example 15, N2,N6-Bis-(2-methoxy-benzyl)-quinoline-2,6-diamine]
17 nM | COc1cccc(CNc2ccc3nc(NCc4ccccc4OC)ccc3c2)c1 [Example 16, N6-(3-Methoxy-benzyl)-N2-(2-methoxy-benzyl)-quinoline-2,6-diamine]
25 nM | COc1ccccc1CNc1ccc2cc(NCc3ccccc3OC(F)(F)F)ccc2n1 [Example 17, N2-(2-Methoxy-benzyl)-N6-(2-trifluoromethoxy-benzyl)-quinoline-2,6-diamine]
87 nM | COc1ccccc1CNc1ccc2cc(CCc3cccnc3)ccc2n1 [Example 18, (2-Methoxy-benzyl)-[6-(2-pyridin-3-yl-ethyl)-quinolin-2-yl]-amine]
22 nM | COc1cccc(CNc2ccc3nc(NCc4ccccc4OC)cc(-c4ccccc4)c3c2)c1 [Example 19, N6-(3-Methoxy-benzyl)-N2-(2-methoxy-benzyl)-4-phenyl-quinoline-2,6-diamine]
30 nM | COc1ccccc1CNc1ccc2nc(NCc3ccccc3OC)cc(-c3ccccc3)c2c1 [Example 20, N2,N6-Bis-(2-methoxy-benzyl)-4-phenyl-quinoline-2,6-diamine]
129 nM | COc1ccccc1CNc1ccc2cc(NCCCn3ccnc3)ccc2n1 [Example 23, N6-(3-Imidazol-1-yl-propyl)-N2-(2-methoxy-benzyl)-quinoline-2,6-diamine]
22 nM | Cc1ccc(CNc2ccc3cc(NCc4cccnc4)ccc3n2)o1 [Example 25, N2-(5-Methyl-furan-2-ylmethyl)-N6-pyridin-3-ylmethyl-quinoline-2,6-diamine]

Ki | Compound
30 nM | COc1ccccc1CNc1ccc2nc(NCc3ccc(C)o3)ccc2c1 [Example 27, N6-(2-Methoxy-benzyl)-N2-(5-methyl-furan-2-ylmethyl)-quinoline-2,6-diamine]
44 nM | COc1cccc(CNc2ccc3nc(NCc4ccc(C)o4)ccc3c2)c1 [Example 28, N6-(3-Methoxy-benzyl)-N2-(5-methyl-furan-2-ylmethyl)-quinoline-2,6-diamine]
32 nM | Cc1ccc(CNc2ccc3cc(NCc4ccccc4)ccc3n2)o1 [Example 29, N6-Benzyl-N2-(5-methyl-furan-2-ylmethyl)-quinoline-2,6-diamine]
17 nM | COc1cc(F)ccc1CNc1cc(-c2ccccc2)c2cc(NCc3cccnc3)ccc2n1 [Example 31, N-2-(4-Fluoro-2-methoxy-benzyl)-4-phenyl-N-6-pyridin-3-ylmethyl-quinoline-2,6-diamine]
12 nM | COc1ccccc1CNc1cc(-c2ccccc2C)c2cc(NCc3cccnc3)ccc2n1 [Example 32, N2-(2-Methoxy-benzyl)-N6-pyridin-3-ylmethyl-4-o-tolyl-quinoline-2,6-diamine]
50 nM | COc1cccc(-c2cc(NCc3ccccc3OC)nc3ccc(NCc4cccnc4)cc23)c1 [Example 33, N-2-(2-Methoxy-benzyl)-4-(3-methoxy-phenyl)-N-6-pyridin-3-ylmethyl-quinoline-2,6-diamine]
22 nM | COc1ccccc1CNc1cc(-c2cc(F)ccc2F)c2cc(NCc3cccnc3)ccc2n1 [Example 35, 4-(2,5-Difluoro-phenyl)-N2-(2-methoxy-benzyl)-N6-pyridin-3-ylmethyl-quinoline-2,6-diamine]
42 nM | COc1cc(F)ccc1CNc1cc(-c2ccccc2)c2cc(NCc3ccccc3)ccc2n1 [Example 36, N-6-Benzyl-N-2-(4-fluoro-2-methoxy-benzyl)-4-phenyl-quinoline-2,6-diamine]
40 nM | COc1cc(F)ccc1CNc1cc(-c2ccccc2)c2cc(NCc3ccncc3)ccc2n1 [Example 37, N-2-(4-Fluoro-2-methoxy-benzyl)-4-phenyl-N-6-&-pyridin-4-ylmethyl-quinoline-2,6-diamine]
41 nM | COc1cc(F)ccc1CNc1cc(-c2ccccc2C)c2cc(NCc3ccccc3)ccc2n1 [Example 38, N-6-2-Benzyl-N-2-(4-fluoro-2-methoxy-benzyl)-4-o-tolyl-quinoline-2,6-diamine]
169 nM | COCCNc1cc(NCc2ccc(F)cc2OC)nc2ccc(NCc3ccccc3)cc12 [Example 42, N6-Benzyl-N2-(4-fluoro-2-methoxy-benzyl)-N4-(2-methoxy-ethyl)-quinoline-2,4,6-triamine]
73 nM | COc1ccccc1CNc1ccc2cc(COc3ccccc3)ccc2n1 [Example 43, (2-Methoxy-benzyl)-(6-phenoxymethyl-quinolin-2-yl)-amine]
40 nM | COc1cc(F)ccc1CNc1cc(N)c2cc(NCc3ccccc3)ccc2n1 [Example 44, N6-Benzyl-N2-(4-fluoro-2-methoxy-benzyl)-quinoline-2,4,6-triamine]
30 nM | COc1ccccc1CNc1cc(N)c2cc(NCc3ccccc3)ccc2n1 [Example 47, N6-Benzyl-N2-(2-methoxy-benzyl)-quinoline-2,4,6-triamine]
128 nM | Cc1ccc(CNc2ccc3cc(CNc4cccnc4)ccc3n2)o1 [Example 49, (5-Methyl-furan-2-ylmethyl)-[6-(pyridin-3-ylaminomethyl)-quinolin-2-yl]-amine]
15 nM | COc1ccccc1CNc1cc(N)c2cc(NCc3cccnc3)ccc2n1 [Example 51, N2-(2-Methoxy-benzyl)-N6-pyridin-3-ylmethyl-quinoline-2,4,6-triamine]
22 nM | Cc1ccc(CNc2cc(N)c3cc(NCc4cccnc4)ccc3n2)o1 [Example 54, N2-(5-Methyl-furan-2-ylmethyl)-N6-pyridin-3-ylmethyl-quinoline-2,4,6-triamine]
